One may read the melting point as the temperature of the solid-liquid transition.

Test system in the first data set: not given
Assay: not given
Conditions: not given
In the case of `CCSc1cc(C(F)(F)F)ccc1-n1nnc(-c2ccc(C(F)(F)F)cc2)c1C` [Compound 4-5, 1-(2-(Ethylthio)-4-(trifluoromethyl)phenyl)-5-methyl-4-(4-(trifluoromethyl)phenyl)-1H-1,2,3-triazole], the melting point was in the range of 79 to 80 °C.

As for `CCS(=O)(=O)c1cc(C(F)(F)F)ccc1-n1nnc(-c2ccc(C(F)(F)F)cc2)c1C` [Compound 4-6, 1-(2-(Ethylsulfonyl)-4-(trifluoromethyl)phenyl)-5-methyl-4-(4-(trifluoromethyl)phenyl)-1H-1,2,3-triazole], the melting point fell in the range of 154 to 156 °C.

As for `CCSc1cc(C(F)(F)F)ccc1-n1cc(-c2ccc(OC(F)(F)F)cc2)nn1` [Compound 4-7, 1-(2-(Ethylthio)-4-(trifluoromethyl)phenyl)-4-(4-(trifluoromethoxy)phenyl)-1H-1,2,3-triazole], the melting point was 110 to 111 °C.

For a further data set, the system named is Pseudaletia separata. The data set can be described thus: Efficacy test against Pseudaletia separata (artificial diet). The format is in vivo. As to conditions: 1 μl emulsion (I) (5% active ingredient) mixed in 0.8 g artificial diet; second-instar larvae; 25° C.; fifth day. As to the method: 5 parts of the compound of the present invention, 93.6 parts of dimethylformamide, and 1.4 parts of polyoxyethylene alkylaryl ether were mixed and dissolved to prepare an emulsion (I) of 5% of the active ingredient.
The insect mortality rate and the control rate were calculated by the following formula. Insect mortality rate (%)=(number of dead insects/number of sample insects)×100 Prevention rate=[1−(Nt)/(Nc)]×100
0.8 g of commercially available artificial diet (Insecta US, manufactured by Nosan Corporation) and 1 μl of emulsion (1) were well mixed and 0.2 g of the resulting mixture was packed in a plastic test container (1.4 ml) per each treatment group to prepare test feeds.
2 second-instar larvae of Pseudaletia separata were inoculated into each treatment group and sealed with a plastic lid. The plastic test containers were placed in a thermostatic chamber with a temperature of 25° C., and the insect mortality rate and the food intake amount were investigated on the fifth day. The test was repeated twice.
Further, a test under the same conditions except that the compound of the present invention was removed from emulsion (I) was conducted as a solvent control group.
As to `CCS(=O)(=O)c1cccnc1-n1ncc(-c2ccc(OC(F)(F)F)cc2)c1N` [Compound 2-10], the “food intake amount in ratio to the solvent control group” value is given as ≤ 10%.

The data set is the same for the next values; noted with them: in vivo.
For `CCSc1cc(C(F)(F)F)ccc1-n1cc(-c2ccc(C(F)(F)F)cc2)cn1` [Compound 1-1], the insect mortality rate came out at 100%.

In turn, `CCS(=O)(=O)c1cc(C(F)(F)F)ccc1-n1cc(-c2ccc(C(F)(F)F)cc2)cn1` [Compound 1-2] yielded an insect mortality rate of 100%.

The compound `CCSc1cc(C(F)(F)F)ccc1-n1ncc(-c2ccc(C(F)(F)F)cc2)c1N` [Compound 1-4] had an insect mortality rate of 100%.

`CCS(=O)(=O)c1cc(C(F)(F)F)ccc1-n1ncc(-c2ccc(C(F)(F)F)cc2)c1N` [Compound 1-5] showed an insect mortality rate of 100%.

Compound `CC[S+]([O-])c1cc(C(F)(F)F)ccc1-n1ncc(-c2ccc(C(F)(F)F)cc2)c1C` (stereo not drawn) [Compound 1-9] gave an insect mortality rate of 100%.

Consider `CCS(=O)(=O)c1cc(C(F)(F)F)ccc1-n1cc(-c2ccc(C(F)(F)F)nc2)cn1` [Compound 1-15], for which the insect mortality rate is on record as 100%.

Turning to `CCS(=O)(=O)c1cc(C(F)(F)F)ccc1-n1cc(-c2ccc(C(F)(F)F)cc2F)cn1` [Compound 1-16], the insect mortality rate was found to be 100%.

On to `CCS(=O)(=O)c1cc(C(F)(F)F)ccc1-n1ncc(-c2ccc(OC(F)(F)F)cc2)c1Br` [Compound 1-20], for which the insect mortality rate came to 100%.

As for `CCS(=O)(=O)c1cc(C(F)(F)F)ccc1-n1cc(-c2ccc(C(F)(F)C(F)(F)F)cc2)cn1` [Compound 1-22], the insect mortality rate is recorded as 100%.

Compound `CCS(=O)(=O)c1cc(C(F)(F)F)ccc1-n1ncc(-c2ccc(OC(F)(F)F)cc2)c1F` [Compound 1-23] gave an insect mortality rate of 100%.

Consider `CCS(=O)(=O)c1cc(C(F)(F)F)ccc1-n1ncc(-c2ccc(C(F)(F)F)nc2)c1N` [Compound 1-25], for which the insect mortality rate was 100%.

As to `CCS(=O)(=O)c1cc(C(F)(F)F)ccc1-n1ncc(-c2cc(C(F)(F)F)cc(C(F)(F)F)c2)c1C` [Compound 1-26], the insect mortality rate is 100%.

On to `CCS(=O)(=O)c1cc(C(F)(F)F)ccc1-n1cc(-c2cc(C(F)(F)F)cc(C(F)(F)F)c2)cn1` [Compound 1-27], for which the insect mortality rate is on record as 100%.

Turning to `CCS(=O)(=O)c1cc(C(F)(F)F)ccc1-n1ncc(-c2cc(C(F)(F)F)cc(C(F)(F)F)c2)c1N` [Compound 1-28], the insect mortality rate amounted to 100%.

Consider `CCS(=O)(=O)c1cc(C(F)(F)F)ccc1-n1ncc(-c2cc(C(F)(F)F)cc(C(F)(F)F)c2)c1I` [Compound 1-30], for which the insect mortality rate came out at 100%.

Regarding `CCS(=O)(=O)c1cc(C(F)(F)F)ccc1-n1ncc(-c2ccc(C(F)(F)C(F)(F)F)cc2)c1N` [Compound 1-31], the insect mortality rate was found to be 100%.

`CCS(=O)(=O)c1cc(C(F)(F)F)ccc1-n1ncc(-c2ccc(SC(F)(F)F)cc2)c1N` [Compound 1-32] displayed an insect mortality rate of 100%.

For the compound `CCS(=O)(=O)c1cc(C(F)(F)F)ccc1-n1ncc(-c2cccc(OC(F)(F)F)c2)c1N` [Compound 1-34], the insect mortality rate is recorded as 100%.

Compound `CCS(=O)(=O)c1cc(C(F)(F)F)ccc1-n1ncc(-c2ccc(C(F)(C(F)(F)F)C(F)(F)F)cc2)c1N` [Compound 1-35] returned an insect mortality rate of 100%.

Consider `CCS(=O)(=O)c1cc(C(F)(F)F)ccc1-n1ncc(-c2ccc(C(F)(F)F)c(Cl)c2)c1N` [Compound 1-36], for which the insect mortality rate was determined as 100%.

In turn, `CCS(=O)(=O)c1cc(C(F)(F)F)ccc1-n1ncc(-c2ccc(OC(F)(F)F)c(Cl)c2)c1N` [Compound 1-38] showed an insect mortality rate of 100%.

`CCS(=O)(=O)c1cc(C(F)(F)F)ccc1-n1ncc(-c2ccc(C(F)(F)C(F)(F)F)nc2)c1C` [Compound 1-47] yielded an insect mortality rate of 100%.

Compound `CCS(=O)(=O)c1cc(C(F)(F)F)ccc1-n1cc(-n2cc(C(F)(F)F)cn2)cn1` [Compound 1-50] displayed an insect mortality rate of 100%.

In the case of `CCS(=O)(=O)c1cc(C(F)(F)F)ccc1-n1cc(-n2cc(C(F)(F)C(F)(F)F)cn2)cn1` [Compound 1-51], the insect mortality rate was 100%.

Regarding `CCS(=O)(=O)c1cc(C(F)(F)F)ccc1-n1ncc(-c2ccc(C(F)(F)C(F)(F)F)nc2)c1C#N` [Compound 1-52], the insect mortality rate is given as 100%.

`CCS(=O)(=O)c1cc(C(F)(F)F)cnc1-n1ncc(-c2ccc(OC(F)(F)F)cc2)c1N` [Compound 2-4] registered an insect mortality rate of 100%.

Turning to `CCS(=O)(=O)c1cc(C(F)(F)F)cnc1-n1ncc(-c2ccc(C(F)(F)F)nc2)c1C` [Compound 2-5], the insect mortality rate worked out at 100%.

The compound `CCS(=O)(=O)c1cc(C(F)(F)F)cnc1-n1cc(-c2ccc(OC(F)(F)F)cc2)cn1` [Compound 2-6] gave an insect mortality rate of 100%.

As to `CCS(=O)(=O)c1cc(C(F)(F)F)cnc1-n1ncc(-c2ccc(OC(F)(F)F)cc2)c1C` [Compound 2-7], the insect mortality rate is recorded as 100%.

`CCS(=O)(=O)c1cccnc1-n1ncc(-c2ccc(OC(F)(F)F)cc2)c1C` [Compound 2-8] registered an insect mortality rate of 100%.

Take `CCS(=O)(=O)c1cccnc1-n1ncc(-c2ccc(C(F)(F)C(F)(F)F)cc2)c1C` [Compound 2-9]: the insect mortality rate is reported as 100%.

Turning to `CCS(=O)(=O)c1cccnc1-n1ncc(-c2ccc(OC(F)(F)F)cc2)c1N` [Compound 2-10], the insect mortality rate is 100%.

As for `CCS(=O)(=O)c1cccnc1-n1ncc(-c2ccc(C(F)(F)C(F)(F)F)cc2)c1N` [Compound 2-11], the insect mortality rate was 100%.

Consider `CCS(=O)(=O)c1cccnc1-n1ncc(-c2ccc(SC(F)(F)F)cc2)c1N` [Compound 2-12], for which the insect mortality rate turned out to be 100%.

`CCS(=O)(=O)c1cccnc1-n1ncc(-c2ccc(C(F)(F)C(F)(F)F)nc2)c1C` [Compound 2-16] gave an insect mortality rate of 100%.

For the compound `CCS(=O)(=O)c1cc(C(F)(F)F)ccc1-c1cnn(-c2ccc(C(F)(F)F)cc2)c1Br` [Compound 3-3], the insect mortality rate is recorded as 100%.

With `CCSc1cc(C(F)(F)F)ccc1-c1cn(-c2ccc(OC(F)(F)F)cc2)nn1` [Compound 5-1], the insect mortality rate came to 100%.

The compound `CCS(=O)(=O)c1cc(C(F)(F)F)ccc1-c1cn(-c2ccc(OC(F)(F)F)cc2)nn1` [Compound 5-2] displayed an insect mortality rate of 100%.

The record behind these values is patent US10548316B2, “Diarylazole compound and harmful organism control agent” (Nippon Soda Co., Ltd., priority 2015, dated 2020).
